Legend:
NSCs = test: 5-HT in culture medium of NSCs by microdialysis with HPLC-ECD; type: cell-based, rat; details: p<0.05
Procedure: A microdialysis sampling system connected to the Petri dish was constructed in our laboratory according to the design originally described by Cheng et al., J. Chromatogr. A. 870, 405-411, 2000. The dialysis probe was made of a dialysis membrane 30 mm in length, with an outer diameter of 150 μm, and a nominal molecular weight cut-off of 13000. Ringer solution ([…]) was perfused through the probe at a flow-rate of 2 μl/min. Microdialysate samples were collected every 10 minutes. An HPLC-ED system (HTEC-500; Eicom, Kyoto, Japan) consisting of a three-electrode cell with an Ag/AgCl electrode as the reference electrode, a counter electrode and a graphite electrode as the working electrode was used to measure determine the levels of serotonin (5-HT). […] The column used for separation at room temperature (25° C.) was a PP-ODS (4.6×30 mm) (Eicom, Kyoto, Japan). The mobile phase, containing 0.1 M sodium phosphate buffer (0.1 M NaH2PO4: 0.1 M Na2HPO4=1000:160, v/v), 1% methanol, 500 mg/l sodium secanesulfonate and 50 mg/l EDTA, was adjusted to pH 6.0 with 5 M of NaOH with a flow rate of 0.5 ml/min. A volume of 10 μl of each microdialysate was injected manually into the chromatographic system and assayed on the same sampling day.

Bcl-2 = Bcl-2 protein expression in NSCs by western blot and immunocytochemistry; type: cell-based, rat
Procedure: After the treatment with IM, the cell lysates of the NSCs were collected and the concentration of protein was determined by using the Protein Assay kit (Bio-Rad, Hercules, Calif., USA). Cell extracts with sample buffer were boiled for 5 minutes and then separated by 10% SDS-PAGE gel. After electrophoresis, the gel was transferred onto a PVDF membrane for immunoblotting. The membrane was first blocked by incubation in non-fat milk at room temperature for 2 hours, then incubated with anti-Bcl-2 antibody (Upstate Biotechnology Inc, Waltham, Mass., USA), and anti-β actin (Chemicon International Inc, Temecula, Calif., USA) for 2 hours at room temperature, washed five times with Tris-Buffered Saline Tween-20 (TBST), and then incubated further at room temperature with horseradish peroxidase-conjugated secondary antibody for 2 hours. Then the membrane was washed six times with TBST and specific bands were made visible by chemiluminescence (Santa Cruz Biotechnology, Santa Cruz, Calif., USA).
Double-stranded, short interfering RNA (siRNA) of BDNF and Bcl-2 were chemically synthesized by Ambion Inc., Austin, Tex., USA). The sense and antisense sequences of BDNF were designed as follows: Sense: […]tt; Antisense: AGCTTAAAAAGAG CTGtt, starting from nucleotide 137 of the Bcl-2 sequence (accession number L14680). The sense and antisense sequences of Bcl-2 were designed as follows: Sense: GCGCUGGAUAUAACUUCUUtt; Antisense: AAGAAGUUAUAUC CAGCGCtt, starting from nucleotide 137 of the Bcl-2 sequence (accession number L14680). In this test, the siRNA control used was siRNA-Cy3 (QIAGEN; sense sequence: UUCUCCGAACGUGU CACGUdTdT-3′-Cy3 and the complement 5′-ACGUGACACGUUCGGAGAAdTdT-3′-Cy3) as an irrelevant control. The transfection of siRNA was performed using Lipofectamine 2000 (Invitrogen, Carlsbad, Calif., USA) according to the manufacturer's instructions. In brief, cells were harvested with 0.25% trypsin, 1 mM ethylenediaminetetraacetic acid (EDTA) in phosphate buffered saline (PBS) without Ca^2+ and Mg^2+, and plated in six-well plates at 10^5 per cm^2. Then 3.5 μl siRNA (100 μM solution) was mixed with 125 μl serum-free culture medium for 5 minutes at room temperature. During this incubation period, 5 μl of Lipofectamine 2000 was diluted in 125 μl serum-free culture medium. These two mixtures were combined, mixed gently, and incubated for 20 minutes at room temperature for complex formation. This 250 μl of siRNA-Lipofectamine mixture was then added into the cells in a final volume of 2.5 ml per well. The transfected cells were cultured and fed daily with fresh medium until they were assayed.
An avidin-biotin complex method was used for the immunohistochemical staining in the differentiated NSCs. Following washes with the 3% hydrogen peroxide, sodium azide and antigens were retrieved using a microwave. Each slide was then treated with antibodies for Bcl-2 (Upstate Biotechnology, Waltham, Mass., USA), Nestin (Chemicon, Temecula, Calif., USA), 4′, 6-diamidino-2-phenylindole (DAPI; Chemicon, Temecula, Calif., USA) and MAP2 (Chemicon, Temecula, Calif., USA). Immunoreactive signals were detected with a mixture of biotinylated rabbit anti-mouse IgG and Fluoresave (Calbiochem, La Jolla, Calif., USA) under confocal microscopy (Olympus, FV300). Each individual sample was analyzed in triplicate. Furthermore, apoptotic cells were identified by the TUNEL method (In Situ Cell Death Detection Kit, POD, Roche Boehringer Mannheim Corp., IN, USA) as described in Chiou et al., J. Immunol. 167, 4098-4103, 2001. Briefly, the cells with cover slips were washed with 1× phosphate buffered saline (PBS), fixed with 4% of paraformaldehyde for 10 minutes, permeabilized with 0.1% of triton X-100 for 5 mins, and incubated with the TUNEL reagent provided for 1 hour. Chromogenic development was then applied with 3-amino-9-ethyl-carbazole, and slides were counterstained with H & E stain. […]

SMILES: CN(C)CCCN1c2ccccc2CCc2ccccc21 [IM, imipramine]
- 5-HT level in culture medium (NSCs; Day 7 and Day 14, IM-treated vs without IM-treatment NSCs): significantly higher
- protein expression level of Bcl-2 in LPS-treated NSCs (Bcl-2; 3 μM IM vs 1, 2 μM IM-LPS-treated, only LPS-treated and control groups): significantly increased
- protein level of Bcl-2 (western blot) (Bcl-2; Day 3 IM-treated vs Day 3 non-IM-treated NSCs, p<0.05): higher
- protein expression of Bcl-2 (immunohistochemistry) (Bcl-2; Day 7 IM-treated NSCs vs NSCs without IM treatment): significantly increased
- expression level of Bcl-2 protein (western blot) (Bcl-2; Day 7 IM-treated vs Day 3 or Day 5 IM-treated NSCs, p<0.05): significantly increased
- Bcl-2 expression in NSCs (Bcl-2; treatment with either agent alone): activate

SMILES: N#CC(=C(/N)Sc1ccccc1N)/C(C#N)=C(\N)Sc1ccccc1N [U0126]
- production of 5-HT of IM-treated NSCs (NSCs; agent added, Day 7 and Day 14): significantly diminished
- Bcl-2 expression induced by IM in NSCs (Bcl-2; agent added to IM-treated NSCs): effectively blocked
